≈ marks a conversion by molar mass, not a printed value. Like-named read-outs stand apart in the source and are kept apart here.
Key:
S. aureus ATCC 29213 = experiment: In vitro antibacterial susceptibility testing, broth dilution micro-method (MIC); details: Staphylococcus aureus, ATCC29213, 24 h, read-out: MIC SA
[1] = tested on: M. tuberculosis H37Ra ATCC 25177; experiment: MTT assay of mycobacterial viability; type: cell-based; details: Mycobacterium tuberculosis, 168 h; at the lowest tested concentration 8 µg/mL, ca. 24 µM; 7 days
Experimental: The MTT assay is a well-characterized method of assessing cell growth through measurement of respiration. For the purpose of this assay, an MTT measured viability of M. tuberculosis H37Ra of less than 70% after exposure to the MIC of each tested compound was considered a positive result.
For the MTT assay, the outer wells of a 96-well plate were filled with 200 µL of sterile water, and the inner wells were filled with 100 µL of the tested compound at the concentration to be examined. Compounds were prepared as previously stated and diluted in Middlebrook media to achieve the desired concentration. Mycobacterium tuberculosis H37Ra ATCC 25177 was suspended in ODAC supplemented Middlebrook broth at a MacFarland standard of 1.0 and then diluted through a 1:20, using Middlebrook broth as a diluent. The diluted mycobacteria (100 µL) were added to each well containing the compound to be tested. A negative growth control was composed of 100 µL of DMSO and 100 µL of media, and the diluted mycobacteria in broth absent of inhibiting compounds were used as a positive growth control. All compounds and controls were prepared in triplicate. Plates were incubated at 37 °C for 7 days. After the incubation period, 10% well volume of MTT reagent was mixed into each well and incubated at 37 °C for 24 h. The reagent and media were then aspirated from the wells, to which 50 µL 99% isopropanol was then added, and plates were read at 570 nm. The absorbance readings from the cells, grown in the presence of the tested compounds, were compared with uninhibited cell growth (using DMSO as the blank) to determine the relative percent viability. The percent viability was determined through the MTT assay. The percent viability is calculated through comparison of a measured value against that of the uninhibited control: %viability = OD570E/OD570P × 100, where OD570E is the reading from the compound-exposed cells, while OD570P is the reading from the uninhibited cells (positive control). Cytotoxic potential is determined by a percent viability of <70%.

[2] = tested on: M. tuberculosis H37Ra ATCC 25177; experiment: In vitro antimycobacterial evaluation, alamarBlue (MIC); type: cell-based; details: Mycobacterium tuberculosis, 168 h, read-out: MIC MT
Experimental: The evaluation of the in vitro antimycobacterial activity of the compounds was performed against M. tuberculosis H37Ra ATCC 25177 [25] and clinical isolate of M. avium subsp. paratuberculosis CIT03 [26], see Table 1. The activity of compounds was expressed as the minimum inhibitory concentration (MIC) that is defined for mycobacteria as a 90% or greater (IC90) reduction of growth in comparison with the control. The MIC/IC90 value is routinely and widely used in bacterial assays, being a standard detection limit according to the Clinical and Laboratory Standards Institute.
Mycobacterium tuberculosis H37Ra ATCC 25177 and well characterised clinical isolate M. avium subsp. paratuberculosis CIT03 were grown in Middlebrook broth (MB), supplemented with Oleic-Albumin-Dextrose-Catalase supplement (Becton Dickinson, Oxford, UK) and mycobactin J (2 μg/mL). Identification of these isolates was performed using biochemical and molecular protocols. At log phase growth, a culture sample (10 mL) was centrifuged at 15,000 rpm/20 min using a bench top centrifuge (Model CR 4-12, Jouan Inc., Winchester, VA, USA). Following removal of the supernatant, the pellet was washed in fresh Middlebrook 7H9GC broth and re-suspended in fresh supplemented MB (10 mL). The turbidity was adjusted to match McFarland standard No. 1 (3 × 10^8 cfu) with MB broth. A further 1:20 dilution of the culture was then performed in MB broth. The antimicrobial susceptibility of all three mycobacterial species was investigated in a 96-well plate format. In these experiments, sterile deionised water (300 µL) was added to all outer-perimeter wells of the plates to minimize evaporation of the medium in the test wells during incubation. Sample wells were composed of 100 µL of test compound dilution and 100 µL of the bacterial stock being tested against. Dilutions of each compound were prepared in duplicate. For all synthesized compounds, final concentrations ranged from 1000 μg/mL to 8 μg/mL. All compounds were prepared in DMSO and subsequent dilutions were made in supplemented MB. The plates were sealed with parafilm and incubated at 37 °C, for 7 days in the case of M. tuberculosis and 11 days in the case of M. avium subsp. paratuberculosis. Following incubation, a 10% addition of alamarBlue (AbD Serotec, Kidlington, UK) was mixed into each well and readings at 570 nm and 600 nm were taken, initially for background subtraction and subsequently after 24 h re-incubation. The background subtraction is necessary for strongly coloured compounds, where the colour may interfere with the interpretation of any colour change. For non-interfering compounds, a blue colour in the well was interpreted as an absence of growth and a pink colour was scored as growth. […] The MIC value is routinely and widely used in bacterial assays and is a standard detection limit according to the Clinical and Laboratory Standards Institute (CLSI,). Rifampicin (Sigma-Aldrich) was used as the standard as it is clinically used antimycobacterial drugs.

[3] = tested on: clinical isolate of M. avium subsp. paratuberculosis CIT03; experiment: as above; type: cell-based; details: Mycobacterium avium, 264 h, read-out: MIC MAP
[4] = tested on: methicillin-resistant S. aureus clinical isolate SA 630; experiment: In vitro antibacterial susceptibility testing, broth dilution micro-method (MIC); details: 24 h; for MIC: Staphylococcus aureus, MRSA, read-out: MIC MRSA SA 630, clinical isolate MRSA SA 630, 37 °C, MH broth
[5] = tested on: methicillin-resistant S. aureus clinical isolate MRSA 63718; experiment: as above; details: for MIC: Staphylococcus aureus, MRSA, read-out: MIC MRSA 63718, clinical isolate MRSA 63718
[6] = tested on: photosynthetic electron transport in spinach chloroplasts; experiment: Inhibition of photosynthetic electron transport (PET), DCPIP photoreduction (Hill reaction); type: biochemical, spinach (Spinacia oleracea L.)
Experimental: The PET inhibiting activity of the compounds was expressed by IC50 values. […] The aqueous solubility of the para-substituted compounds was limited; therefore IC50 values could not be determined due to precipitation of compounds during experiment. […]
Chloroplasts were prepared from spinach (Spinacia oleracea L.) according to Masarovicova and Kralova. The inhibition of photosynthetic electron transport (PET) in spinach chloroplasts was determined spectrophotometrically (Genesys 6, Thermo Scientific Corporation), using an artificial electron acceptor 2,6-dichlorophenol-indophenol (DCPIP) according to Kralova et al., and the rate of photosynthetic electron transport was monitored as a photoreduction of DCPIP. The measurements were carried out in phosphate buffer (20.0 mM, pH 7.2) containing sucrose (0.4 M), MgCl2 (5.0 mM) and NaCl (15.0 mM). The chlorophyll content was 30 mg/L in these experiments and the samples were irradiated (~100 W/m^2 with 10 cm distance) with a halogen lamp (250 W) using a 4 cm water filter to prevent warming of the samples (suspension temperature 22 °C). The studied compounds were dissolved in DMSO due to their limited aqueous solubility. The applied DMSO concentration (up to 4%) had negligible effect on the photochemical activity in isolated spinach chloroplasts (observed differences in DCPIP photoreduction due DMSO addition were within experimental error). The inhibitory efficiency of the studied compounds was expressed by IC50 values, i.e., by molar concentration of the compounds causing 50% decrease in DCPIP photoreduction relative to the untreated control. […] All reagents used in this study were of analytical grade and were purchased from Sigma.

[7] = tested on: methicillin-resistant S. aureus clinical isolate SA 3202; experiment: In vitro antibacterial susceptibility testing, broth dilution micro-method (MIC); details: 24 h; for MIC: Staphylococcus aureus, MRSA, read-out: MIC MRSA 3202, clinical isolate MRSA 3202, 37 °C, MH broth
[8] = tested on: Chla-protein complexes of photosystem II in spinach chloroplasts; experiment: Chlorophyll a fluorescence emission spectra in spinach chloroplasts; type: biochemical, spinach (Spinacia oleracea L.); details: 0, 102, 204, 408 and 612 μM; λex = 436 nm; band at 686 nm
Text: The studied compounds affected chlorophyll a (Chla) fluorescence in spinach chloroplasts indicating their interactions with constituents of photosynthetic apparatus. […] The extent of perturbation of Chla-protein complexes in the thylakoid membrane is reflected in the sharpness of decreased fluorescence of Chla pigment. A similar decrease of Chla fluorescence in plant chloroplasts was also observed previously after treatment with ring-substituted 1-hydroxynaphthalene-2-carboxanilides, 2-hydroxynaphthalene-1-carboxanilides, 5-bromo- and 3,5-dibromo-2-hydroxy-N-phenyl-benzamides and ring-substituted 4-arylamino-7-chloroquinolinium chlorides.
The emission fluorescence spectra were recorded on a fluorescence spectrophotometer F-2000 (Hitachi, Tokyo, Japan) at room temperature (24 °C). The samples of chloroplast suspension (10 mg chlorophyll/L) with and without the studied inhibitor were excited at 436 nm, using an excitation slit 20 nm and emission slit 10 nm, and were kept in the dark for 2 min prior to the measurement. Due to low aqueous solubility the compounds were added to a chloroplast suspension in DMSO solution. The DMSO concentration in all samples was the same as in the control (10%).

[9] = tested on: human monocytic leukemia THP-1 cells; details: 24 h
[10] = M. tuberculosis H37Ra, 7 days, 37 °C, alamarBlue, MIC/IC90
[11] = M. avium subsp. paratuberculosis CIT03, 11 days, 37 °C, alamarBlue, MIC/IC90

CCC(C)Oc1ccccc1NC(=O)c1cc2ccccc2cc1O (stereo not drawn) [Compound 8a, N-[2-(But-2-yloxy)phenyl]-3-hydroxynaphthalene-2-carboxamide]
MIC (S. aureus ATCC 29213): 5.9 µM (≈ 1.98 µg/mL)
viability at 8 µg/mL [1]: 23.9%
MIC [2, 10]: 23 µM (≈ 7.71 µg/mL)
MIC [3, 11]: 89 µM (≈ 29.9 µg/mL)
MIC [4]: 12 µM (≈ 4.02 µg/mL)
MIC MRSA SA 630 ([4]; clinical isolate MRSA SA 630, 37 °C, MH broth): 11.9 µM (≈ 3.99 µg/mL)
MIC ([5]; 24 h, 24 h, 37 °C, MH broth): 12 µM (≈ 4.02 µg/mL)
activity fold higher than that of ampicillin ([5]; antibacterial activity against MRSA strains versus ampicillin): ~4 fold
MIC MRSA 63718 ([5]; clinical isolate MRSA 63718, 24 h, 37 °C, MH broth): 11.9 µM (≈ 3.99 µg/mL)
IC50 [6]: 134 µM
MIC [7]: 12 µM (≈ 4.02 µg/mL)
MIC MRSA 3202 ([7]; clinical isolate MRSA 3202, 37 °C, MH broth): 11.9 µM (≈ 3.99 µg/mL)

CCOc1cccc(NC(=O)c2cc3ccccc3cc2O)c1 [Compound 4b, N-(3-Ethoxyphenyl)-3-hydroxynaphthalene-2-carboxamide]
MIC (S. aureus ATCC 29213): 832 µM (≈ 256 µg/mL)
MIC [2, 10]: 813 µM (≈ 250 µg/mL)
MIC [3]: 813 µM (≈ 250 µg/mL)
chlorophyll a fluorescence emission [8]: decreased intensity of the emission band at 686 nm
MIC [4]: 832 µM (≈ 256 µg/mL)
MIC ([5]; 24 h, 24 h, 37 °C, MH broth): 832 µM (≈ 256 µg/mL)
IC50 [6]: 4.5 µM
MIC [7]: 832 µM (≈ 256 µg/mL)

CCC(C)Oc1cccc(NC(=O)c2cc3ccccc3cc2O)c1 (stereo not drawn) [Compound 8b, N-[3-(But-2-yloxy)phenyl]-3-hydroxynaphthalene-2-carboxamide]
MIC (S. aureus ATCC 29213): 763 µM (≈ 256 µg/mL)
viability at 8 µg/mL [1]: 21.7%
MIC [2, 10]: 23 µM (≈ 7.71 µg/mL)
MIC [3, 11]: 745 µM (≈ 250 µg/mL)
LD50 [9]: 2.7 ± 0.7 µM
MIC [4]: 763 µM (≈ 256 µg/mL)
MIC ([5]; 24 h, 24 h, 37 °C, MH broth): 763 µM (≈ 256 µg/mL)
IC50 [6]: 8.3 µM
MIC [7]: 763 µM (≈ 256 µg/mL)

CC(C)Oc1cccc(NC(=O)c2cc3ccccc3cc2O)c1 [Compound 7b, 3-Hydroxy-N-[3-(prop-2-yloxy)phenyl]naphthalene-2-carboxamide]
MIC (S. aureus ATCC 29213): 796 µM (≈ 256 µg/mL)
viability at 8 µg/mL [1]: 10.7%
MIC [2]: 24 µM (≈ 7.71 µg/mL)
MIC [3, 11]: 778 µM (≈ 250 µg/mL)
MIC [4]: 796 µM (≈ 256 µg/mL)
MIC ([5]; 24 h, 24 h, 37 °C, MH broth): 796 µM (≈ 256 µg/mL)
IC50 [6]: 6.9 µM
MIC [7]: 796 µM (≈ 256 µg/mL)

COc1cccc(NC(=O)c2cc3ccccc3cc2O)c1 [Compound 3b, 3-hydroxy-N-(3-methoxyphenyl)naphthalene-2-carboxamide]
MIC (S. aureus ATCC 29213): 873 µM (≈ 256 µg/mL)
MIC [2, 10]: 51 µM (≈ 15 µg/mL)
MIC [3, 11]: 426 µM (≈ 125 µg/mL)
LD50 [9]: >30 µM
MIC [4]: 873 µM (≈ 256 µg/mL)
MIC ([5]; 24 h, 24 h, 37 °C, MH broth): 873 µM (≈ 256 µg/mL)
IC50 [6]: 53.4 µM
MIC [7]: 873 µM (≈ 256 µg/mL)

Reference: PMC6272341, “Synthesis and Biological Evaluation of N-Alkoxyphenyl-3-hydroxynaphthalene-2-carboxanilides” (Molecules, 2015)
